{"source": "ChEMBL document CHEMBL5325414", "about": "“Novel neuroprotective pyromeconic acid derivatives with concurrent anti-Aβ deposition, anti-inflammatory, and anti-oxidation properties for treatment of Alzheimer's disease” (Eur J Med Chem, 2023)", "key": {"[1]": {"test": "Metal chelating activity assessed as compound-Na+ complex formation by optical shift at 50 uM in PBS buffer 7.4 by UV-vis spectrometric analysis"}, "[2]": {"target": "Amyloid-beta precursor protein (Homo sapiens, UniProt P05067)", "sequence (P05067 whole entry)": "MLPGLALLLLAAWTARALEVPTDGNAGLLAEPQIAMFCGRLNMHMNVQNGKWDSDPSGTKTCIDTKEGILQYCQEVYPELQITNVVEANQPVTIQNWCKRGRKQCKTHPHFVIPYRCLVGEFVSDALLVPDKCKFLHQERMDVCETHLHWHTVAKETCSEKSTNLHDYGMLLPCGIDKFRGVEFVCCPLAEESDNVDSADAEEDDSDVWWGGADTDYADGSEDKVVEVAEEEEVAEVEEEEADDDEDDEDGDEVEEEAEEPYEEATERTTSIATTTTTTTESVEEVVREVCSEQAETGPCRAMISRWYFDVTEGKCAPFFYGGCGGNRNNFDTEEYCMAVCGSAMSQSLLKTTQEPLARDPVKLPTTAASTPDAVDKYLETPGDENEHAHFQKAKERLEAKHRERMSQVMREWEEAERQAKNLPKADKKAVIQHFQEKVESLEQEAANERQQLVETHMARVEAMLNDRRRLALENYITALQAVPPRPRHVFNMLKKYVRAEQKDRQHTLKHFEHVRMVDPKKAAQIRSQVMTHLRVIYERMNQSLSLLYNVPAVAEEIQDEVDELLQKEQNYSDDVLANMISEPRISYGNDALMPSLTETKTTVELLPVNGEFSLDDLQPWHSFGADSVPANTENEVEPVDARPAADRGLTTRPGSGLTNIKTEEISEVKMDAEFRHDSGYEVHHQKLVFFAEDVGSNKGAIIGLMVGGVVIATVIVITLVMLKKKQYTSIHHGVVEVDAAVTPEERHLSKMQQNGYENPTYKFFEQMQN", "test": "Inhibition of Cu2+ induced amyloid beta (1 to 42) (unknown origin) aggregation assessed as depolymerization at 50 uM for 24 hrs by TEM analysis"}, "[3]": {"tested_on": "BV-2", "test": "Neuroprotective activity against amyloid beta (1 to 42) induced neurotoxicity in mouse BV-2 cells assessed as survival of cells at 10 uM treated for 24 hrs relative to control", "assay_type": "functional"}, "[4]": {"tested_on": "BV-2", "test": "Effect of amyloid beta (1 to 42) indued apoptosis in mouse BV-2 cells assessed as viable cells at 2.5 uM measured by propidium iodide staining based flow cytometric analysis (reference value: 61.29%)", "assay_type": "functional", "conditions": "read-out: Activity"}, "[5]": {"tested_on": "BV-2", "test": "Effect of amyloid beta (1 to 42) indued apoptosis in mouse BV-2 cells assessed as late apoptotic cells at 2.5 uM measured by propidium iodide staining based flow cytometric analysis (reference value: 6.88%)", "assay_type": "functional"}, "[6]": {"tested_on": "BV-2", "test": "Effect of amyloid beta (1 to 42) indued apoptosis in mouse BV-2 cells assessed as necrotic cells at 2.5 uM measured by propidium iodide staining based flow cytometric analysis (reference value: 5.72%)", "assay_type": "functional"}, "[7]": {"tested_on": "BV-2", "test": "Effect of amyloid beta (1 to 42) indued apoptosis in mouse BV-2 cells assessed as viable cells at 5 uM measured by propidium iodide staining based flow cytometric analysis (reference value: 61.29%)", "assay_type": "functional", "conditions": "read-out: Activity"}, "[8]": {"tested_on": "BV-2", "test": "Effect of amyloid beta (1 to 42) indued apoptosis in mouse BV-2 cells assessed as late apoptotic cells at 5 uM measured by propidium iodide staining based flow cytometric analysis (reference value: 6.88%)", "assay_type": "functional"}, "[9]": {"tested_on": "BV-2", "test": "Effect of amyloid beta (1 to 42) indued apoptosis in mouse BV-2 cells assessed as necrotic cells at 5 uM measured by propidium iodide staining based flow cytometric analysis (reference value: 5.72%)", "assay_type": "functional"}, "[10]": {"tested_on": "BV-2", "test": "Effect of amyloid beta (1 to 42) indued apoptosis in mouse BV-2 cells assessed as viable cells at 10 uM measured by propidium iodide staining based flow cytometric analysis (reference value: 61.29%)", "assay_type": "functional", "conditions": "read-out: Activity"}, "[11]": {"tested_on": "BV-2", "test": "Effect of amyloid beta (1 to 42) indued apoptosis in mouse BV-2 cells assessed as early apoptotic cells at 10 uM measured by propidium iodide staining based flow cytometric analysis (reference value: 26.12%)", "assay_type": "functional"}, "[12]": {"tested_on": "BV-2", "test": "Effect of amyloid beta (1 to 42) indued apoptosis in mouse BV-2 cells assessed as necrotic cells at 10 uM measured by propidium iodide staining based flow cytometric analysis (reference value: 5.72%)", "assay_type": "functional"}, "[13]": {"tested_on": "BV-2", "test": "Effect on H2O2 induced reactive oxygen species in mouse BV-2 cells assessed as reduction of ROS generation at 5 uM by fluorescence microscopic analysis relative to control", "assay_type": "functional", "design": "scale not given: the % may be the effect or the level left"}, "[14]": {"tested_on": "BV-2", "test": "Effect on H2O2 induced reactive oxygen species in mouse BV-2 cells assessed as reduction of ROS generation at 10 uM by fluorescence microscopic analysis relative to control", "assay_type": "functional", "design": "scale not given: the % may be the effect or the level left"}, "[15]": {"test": "Half life in Sprague-Dawley rat at 15 mg/kg, IG", "assay_type": "ADME, organism-based", "conditions": "in vivo, po"}, "[16]": {"test": "Tmax in Sprague-Dawley rat at 15 mg/kg, IG", "assay_type": "ADME, organism-based", "conditions": "in vivo, po"}, "[17]": {"test": "Drug concentration in plasma of Sprague-Dawley rat at 15 mg/kg, IG measured after 2 hrs", "assay_type": "ADME, organism-based", "conditions": "po"}, "[18]": {"test": "Drug concentration in plasma of Sprague-Dawley rat at 15 mg/kg, IG measured after 4 hrs", "assay_type": "ADME, organism-based", "conditions": "po"}, "[19]": {"test": "Drug concentration in hippocampus of Sprague-Dawley rat at 15 mg/kg, IG measured after 1 hrs", "assay_type": "ADME, organism-based", "conditions": "po, read-out: Drug uptake"}, "[20]": {"test": "Drug concentration in hippocampus of Sprague-Dawley rat at 15 mg/kg, IG measured after 2 hrs", "assay_type": "ADME, organism-based", "conditions": "po, read-out: Drug uptake"}, "[21]": {"test": "Ratio of drug concentration in hippocampus to plasma of Sprague-Dawley rat at 15 mg/kg, IG measured after 0.083 hrs", "assay_type": "ADME, organism-based", "conditions": "po"}, "[22]": {"test": "Ratio of drug concentration in hippocampus to plasma of Sprague-Dawley rat at 15 mg/kg, IG measured after 1 hrs", "assay_type": "ADME, organism-based", "conditions": "po"}, "[23]": {"test": "Acute toxicity in mouse assessed as change in dietary activity at 2000 mg/kg, IG administered as single dose measured after 14 days", "assay_type": "organism-based", "conditions": "in vivo, po, 336 h, time 14 day"}, "[24]": {"test": "Acute toxicity in mouse assessed as change in body weight at 2000 mg/kg, IG administered as single dose measured after 14 days", "assay_type": "organism-based", "conditions": "in vivo, po, 336 h, time 14 day"}, "[25]": {"test": "Acute toxicity in mouse assessed as histopathological change in brain at 2000 mg/kg, IG administered as single dose measured after 14 days measured by H and E staining analysis", "assay_type": "organism-based", "conditions": "in vivo, po, 336 h, time 14 day"}, "[26]": {"tested_on": "Mus musculus", "test": "Anti alzheimer activity in scopolamine induced anxiety in ICR mouse assessed as relieved anxiety pretreated with scopolamine at 3 mg/kg, ip for 31 days followed by compound addition at 20 mg/kg, po at day 7 to 31", "assay_type": "functional, organism-based", "conditions": "time 25.0 day"}, "[27]": {"tested_on": "Mus musculus", "test": "Anti alzheimer activity in scopolamine induced anxiety in ICR mouse assessed as increase in discrimination ratio pretreated with scopolamine at 3 mg/kg, ip for 31 days followed by compound addition at 20 mg/kg, po at day 7 to 31 by novel object recognition test", "assay_type": "functional, organism-based", "conditions": "time 25.0 day"}, "[28]": {"tested_on": "Mus musculus", "test": "Anti alzheimer activity in scopolamine induced anxiety in ICR mouse assessed as increase in crossing time by measuring escape latency pretreated with scopolamine at 3 mg/kg, ip for 31 days followed by compound addition at 20 mg/kg, po at day 7 to 31 by morris water maze test", "assay_type": "functional, organism-based", "conditions": "time 25.0 day"}, "[29]": {"tested_on": "Mus musculus", "test": "Neuroprotective effect in scopolamine induced cognitively impaired mouse assessed as recovery of decreased Nissl bodies in CA1 region at hippocampus at 20 mg/kg by Nissl staining analysis", "assay_type": "functional, organism-based"}, "[30]": {"tested_on": "Mus musculus", "test": "Neuroprotective effect in scopolamine induced cognitively impaired mouse assessed as reversal of amyloid beta plaque deposition at 20 mg/kg by immunohistochemistry staining analysis", "assay_type": "functional, organism-based"}, "[31]": {"tested_on": "Mus musculus", "test": "Antioxidant activity in scopolamine induced cognitive impaired mouse assessed as increase of GSH level in cortex at 20 mg/kg", "assay_type": "functional, organism-based"}, "[32]": {"tested_on": "Mus musculus", "test": "Antioxidant activity in scopolamine induced cognitive impaired mouse assessed as reversal of HO-1 level in cortex at 20 mg/kg", "assay_type": "functional, organism-based"}, "[33]": {"tested_on": "Mus musculus", "test": "In vivo effect on HO-1 expression in scopolamine induced cognitive impaired mouse assessed as reversal of NRF2 signalling in hippocampus treated at 20 mg/kg by immunoblot analysis", "assay_type": "functional, organism-based"}, "[34]": {"tested_on": "BV-2", "test": "Antioxidant activity in H2O2 treated mouse BV-2 cells assessed as reversal of HO-1 level at 5 to 20 uM by immunofluorescence analysis", "assay_type": "functional, cell-based", "conditions": "dose 5-20 µM"}, "[35]": {"tested_on": "Mus musculus", "test": "In vivo antiinflammatory activity in scopolamine induced cognitive impaired ICR mouse assessed as decrease in IL-6 levels in cortex", "assay_type": "functional, organism-based"}, "[36]": {"tested_on": "Mus musculus", "test": "In vivo antiinflammatory activity in scopolamine induced cognitive impaired ICR mouse assessed as decrease in IL-1 levels in cortex", "assay_type": "functional, organism-based"}, "[37]": {"tested_on": "Mus musculus", "test": "In vivo antiinflammatory activity in scopolamine induced cognitive impaired ICR mouse assessed as decrease in GFAP levels in cortex", "assay_type": "functional, organism-based"}, "[38]": {"tested_on": "Mus musculus", "test": "In vivo antiinflammatory activity in scopolamine induced cognitive impaired ICR mouse assessed as decrease in GFAP levels in hippocampus by immunoblot analysis", "assay_type": "functional, organism-based"}}, "note": "Active and inactive are the calls of the source. The calls are words filed in the database; no cut-off is given here."}
{"smiles": "O=c1ccoc(/C=C/c2ccc(O)c(O)c2)c1O", "values": [{"measurement": "Activity", "setting": "[1]", "result": "inactive"}, {"measurement": "inhibition", "setting": "[2]", "result": "Active"}, {"measurement": "Activity", "setting": "[3]", "result": 75.5, "unit": "%"}, {"measurement": "viability at 2.5 µM", "setting": "[4]", "result": 76.2, "unit": "%"}, {"measurement": "Activity", "setting": "[5]", "result": 10.2, "unit": "%"}, {"measurement": "Activity", "setting": "[6]", "result": 0.16, "unit": "%"}, {"measurement": "viability at 5 µM", "setting": "[7]", "result": 77.4, "unit": "%"}, {"measurement": "Activity", "setting": "[8]", "result": 13.4, "unit": "%"}, {"measurement": "Activity", "setting": "[9]", "result": 0.84, "unit": "%"}, {"measurement": "viability at 10 µM", "setting": "[10]", "result": 63.1, "unit": "%"}, {"measurement": "Activity", "setting": "[11]", "result": 22.1, "unit": "%"}, {"measurement": "Activity", "setting": "[12]", "result": 7.98, "unit": "%"}, {"measurement": "Activity", "setting": "[13]", "result": 19.45, "unit": "%"}, {"measurement": "Activity", "setting": "[14]", "result": 34.85, "unit": "%"}, {"measurement": "half-life", "setting": "[15]", "result": 14, "unit": "h"}, {"measurement": "Tmax", "setting": "[16]", "result": 0.17, "unit": "h"}, {"measurement": "concentration at 2 h", "setting": "[17]", "result": 0.99, "unit": "ng/mL"}, {"measurement": "concentration at 4 h", "setting": "[18]", "result": 0.95, "unit": "ng/mL"}, {"measurement": "concentration at 1 h", "setting": "[19]", "result": 8.72, "unit": "ng/mL"}, {"measurement": "concentration at 2 h", "setting": "[20]", "result": 6.37, "unit": "ng/mL"}, {"measurement": "Kp at 0.083 h", "setting": "[21]", "result": 0.07}, {"measurement": "Kp at 1 h", "setting": "[22]", "result": 5.04}, {"measurement": "Activity", "setting": "[23]", "result": "Non-Toxic"}, {"measurement": "Activity", "setting": "[24]", "result": "Non-Toxic"}, {"measurement": "Activity", "setting": "[25]", "result": "Non-Toxic"}, {"measurement": "Activity", "setting": "[26]", "result": "Active"}, {"measurement": "Activity", "setting": "[27]", "result": "Active"}, {"measurement": "Activity", "setting": "[28]", "result": "Active"}, {"measurement": "Activity", "setting": "[29]", "result": "Active"}, {"measurement": "Activity", "setting": "[30]", "result": "Active"}, {"measurement": "Activity", "setting": "[31]", "result": "Active"}, {"measurement": "Activity", "setting": "[32]", "result": "Active"}, {"measurement": "Activity", "setting": "[33]", "result": "Active"}, {"measurement": "Activity", "setting": "[34]", "result": "Active"}, {"measurement": "Activity", "setting": "[35]", "result": "Active"}, {"measurement": "Activity", "setting": "[36]", "result": "Active"}, {"measurement": "Activity", "setting": "[37]", "result": "Active"}, {"measurement": "Activity", "setting": "[38]", "result": "Active"}]}
